Reference: patent publication US12357699B2, “B-cell immunotherapy in cancer treatment” (AKAMARA THERAPEUTICS, INC., priority 2018, dated 2025)

Legend:
LLC cells = experiment: Combination of PD1 immune checkpoint inhibitor and IO-125 in immunocompetent murine NSCLC tumor model (LLC cells s.c. in C57/BL6 mice); assay type: in vivo; settings: syngeneic lung cancer (LLC) bearing animals, two cycles
Experimental: The combination of a PD1 immune checkpoint inhibitor and IO-125 was evaluated in an immunocompetent murine NSCLS tumor model. The murine NSCLC tumor model was generated by subcutaneously implanting LLC cells in C57/BL6 mice. Treatment with saline (control), IO-125, immune check point inhibitor (anti-PD1 antibody, Biolegend) or combinatorial therapy (IO-125 and anti-PD1 antibody) was initiated when average tumor volume in the animals reached 100 mm^3, through i.v. administration of compounds. A schematic representation of the treatment regimen is depicted in FIG. 1A.
(§1) In contrast, 45% of the animals underwent complete tumor regression when the two drugs were combined. These observations illustrate that combinations of IO-125 with immune checkpoint inhibitor(s) augment tumor regression as compared to monotherapies.

IGKC [1] = experiment: Immune biomarker expression (molecular immunophenotyping, immunohistochemistry of FFPE sections) in LLC tumors; assay type: in vivo, C57/BL6 mice
Text: as §1
Subsequently, tumors were harvested and a portion fixed in formalin.

4T1 cells [2] = experiment: Murine triple negative breast cancer (TNBC) tumor model (4T1 s.c. in Balb/c mice); assay type: in vivo; settings: 4T1 tumor-bearing Balb/c mice, 20 mgPt/kg, two cycles
Text: (§2) The efficacy of IO-125 was examined in the murine triple negative breast cancer (TNBC) tumor model (4T1). 4T1 cells were subcutaneously implanted in Balb/c mice to generate tumors and treated with IO-125 or saline (control), when tumors reached an average volume of 100 mm^3. The dose administered for IO-125 was 20 mgPt/kg, with a regimen of b5d. Following one cycle of treatment, tumors were harvested and a portion of the tumor from control and IO-125 treated group was used for total RNA isolation and subsequent evaluation of immune activating and immune suppressive genes (Denkert et al., Clin Oncol. 2015; 33(9):983-91) by semi-quantitative PCR. IO-125 treatment was continued for an additional cycle, with recording of tumor volume and examination of tumors for regression.

IGKC [3] = experiment: Semi-quantitative PCR of immune activating and suppressive genes in 4T1 tumors; assay type: in vivo, Balb/c mice; settings: 4T1 tumors harvested after one cycle, 20 mgPt/kg
Text: as §2

4T1 cells [4] = experiment: Tumor rechallenge (immune memory study), re-implantation of 4T1 cells; assay type: in vivo, Balb/c mice
Experimental: 4T1 cells were subcutaneously implanted in Balb/c mice to generate tumors. When tumors reached an average volume of 100 mm^3, they were treated with IO-125 (Group 1). Two groups of Balb/c mice (non-tumor bearing) were either treated with IO-125 or saline (designated Group 2 and 3 respectively; FIG. 3A). Immune memory cells are poised to rapidly expand and induce effector functions upon recurrence, while existing in a functionally quiescent state. To verify this hypothesis, we examined immune memory in IO-125 treated tumors.

[5] = system: B cell differentiation and TLR activation markers; experiment: Relative mRNA expression in naive splenic B cells cultured with conditioned media (TCM) from treated 4T1 cells; assay type: cell-based, mice; settings: splenic B cells 48 hours in TCM from 4T1 cells treated 6 hours plus 42 hours
Experimental: 4T1 cells were seeded in cell culture dishes in IMDM media containing 10% FBS. The cells were treated with blank supramolecule (Vehicle) and IO-125 when they reached 60% confluence. Following a transient treatment of 6 hours, the media was removed and supplemented with fresh culture media and cells were incubated for additional 42 hours. Following treatment, the conditioned media from 4T1 cells (TCM) was collected for each treatment and filtered through 0.2 micron PES filters to obtain TCM free of cell debris. The harvested TCMs were used immediately for conditioning of B cells, isolated from naïve mice splenocytes using the EasySep Stem Cell B cell isolation kit as per manufacturers protocol. The B cells were incubated with conditioned media and harvested after 48 hours of incubation. RNA was isolated from the B cells and used for relative mRNA expression level evaluation of genes involved in B cell differentiation and TLR activation.

4T1 cells [6] = experiment: 4T1 tumor growth in B cell-deficient mice (Jh−/−); assay type: in vivo; settings: 4T1 tumors
Experimental: (§3) 4T1 cells were subcutaneously implanted in the mice strains mentioned and when tumors reached an average volume of 100 mm^3, they were divided into two groups. One group was kept as control and the other treated with IO-125 and tumor volume in all the animals were recorded.

4T1 cells [7] = experiment: 4T1 tumor growth in mice lacking functional B cells and T cells (SCID); assay type: in vivo; settings: 4T1 tumors
Experimental: as §3

[8] = system: genes involved in B cell differentiation and TLR activation; experiment: Relative mRNA expression in splenic B cells isolated from treated mice; assay type: in vivo, Balb/c mice; settings: tumor bearing treated mice (Group 1)
Experimental: Splenic B cells were isolated from Group 1 and Group 2 mice, described in Example 3. Spleen was harvested from mice (n=3) and minced into small pieces in RPMI-1640 basal media. The pieces were placed on top of a 40 mesh membrane and crushed with the back of a syringe and the single cell suspension was collected onto a 50 mL tube. The single cell suspension was washed twice with PBS to remove debris by centrifuging at 2000 rpm. Splenocytes were counted using haemocytometer and 100 million splenocytes were resuspended in 1 mL of Isolation buffer (2% FBS, […] in DPBS) and transferred to a 5 ml Polystyrene tube. The B cells were isolated from splenocytes using the EasySep Stem Cell B cell isolation kit as per manufacturers protocol. One part of the isolated B cells was used for RNA isolation, followed by relative mRNA expression levels of genes involved in B cell differentiation and TLR activation were evaluated; while the second part was used for immunodetection of specific proteins, following the manufacturer's protocol.

For `CC(C)CCCC(C)C1CCC2C3CC=C4CC(OCCN(CC(=O)[O-])CC(=O)[O][Pt+]5[NH]C6CCCCC6[NH]5)CCC4(C)C3CCC12C` (stereo not drawn) [IO-125], the “tumor growth curves (FIG. 2C)” value (LLC cells) was “significant tumor growth inhibition but no regression”, the “IGKC levels (FIG. 2D)” value (IGKC [1]; LLC tumors of treated animals, relative expression of immune biomarkers) was “increase in IGKC levels” and the “immunodetection of B220 and IGKC in tumor sections (FIG. 2E)” value (IGKC [1]; treated versus control tumors) was “significantly increased expression of IGKC”. The “tumor growth curve (FIG. 2A)” value (4T1 cells [2]) was “complete regression of tumors”, the “IGKC mRNA levels in tumors (FIG. 2B)” value (IGKC [3]) was “significant increase in IGKC mRNA levels” and the “tumor growth after re-implantation of cancer cells, Group 1” value (4T1 cells [4]; animals that had previously undergone tumor regression with treatment) was “no tumor growth was observed”. For the same molecule, the “tumor growth after implantation of 4T1 cells, Group 2” value (4T1 cells [4]; non-tumor bearing Balb/c mice pre-treated, compared with saline treated mice (Group 3)) was “led to the growth of tumors”, the “B cell differentiation markers and TLR activation markers, relative mRNA (FIG. 4B)” value [5] was “substantially increased” and the “tumor ablation in Jh−/− mice (FIG. 4C)” value (4T1 cells [6]) was “Tumor ablation did not occur”. For the same molecule, the “tumor ablation in SCID mice (FIG. 4D)” value (4T1 cells [7]) was “Tumor ablation did not occur”, the “expression of TLRs and CD80 in splenic B cells” value [8] was “elevated expression of TLRs and CD80” and the “IGKC mRNA levels in splenic B cells (FIG. 5B)” value ([8]; normalized to Group 2) was “significant increase in IGKC mRNA levels”.
